We go through 26 compounds from patent US10793580B2, “Substituted pyrazoloazepin-8-ones and their use as phosphodiesterase inhibitors” (LEO Pharma A/S, priority 2016, dated 2020).

human PDE4D catalytic domain, sequence (Q08499 380-740): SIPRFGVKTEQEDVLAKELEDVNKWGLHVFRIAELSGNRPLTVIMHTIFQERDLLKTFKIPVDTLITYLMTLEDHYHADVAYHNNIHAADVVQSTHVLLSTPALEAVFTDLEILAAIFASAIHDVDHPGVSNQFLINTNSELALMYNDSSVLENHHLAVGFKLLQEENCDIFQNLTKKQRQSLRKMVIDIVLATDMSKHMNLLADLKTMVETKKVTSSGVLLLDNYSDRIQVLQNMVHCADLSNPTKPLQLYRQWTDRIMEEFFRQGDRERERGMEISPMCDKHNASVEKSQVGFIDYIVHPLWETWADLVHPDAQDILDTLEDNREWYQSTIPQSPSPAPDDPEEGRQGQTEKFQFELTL

This assay has as its target human PDE4D catalytic domain (Homo sapiens (Human), UniProt Q08499). Description: PDE4 Assay (TR-FRET, FAM-cAMP cleavage). The class given is biochemical. The following applies: human PDE4D catalytic domain (UniProt Q08499 [S380-L740]); 50% inhibition of substrate cleavage; read-out: PDE4 IC50 range. Summed up: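 Readout is Tb-to-FAM time-resolved FRET after nanoparticle capture of AMP, the product of cleaving a cAMP/FAM-cAMP mixture by PDE4D catalytic domain (S380-L740) in the presence of titrated compound. Values are IC50 ranges in nM: concentration halving substrate cleavage relative to controls.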
Background: TR-FRET usually uses a lanthanide donor and a delayed reading to cut background.
A word on the IC50: it is the concentration needed to halve the response being measured. `CCn1nc(C[C@@H](C)COC(=O)[C@H]2CC[C@H](O)CC2)c2c1C(=O)NCC1(CCOCC1)C2` [Example 146, [(2R)-3-(1-ethyl-8-oxo-spiro[6,7-dihydro-4H-pyrazolo[3,4-c]azepine-5,4′-tetrahydropyran]-3-yl)-2-methyl-propyl] 4-hydroxy-cyclohexanecarboxylate]: the IC50 is below 0.1 µM.

In the case of `CCn1nc(C[C@@H](C)COC(=O)[C@H]2CC[C@@H](O)CC2)c2c1C(=O)NCC1(CCOCC1)C2` [Example 147, [(2R)-3-(1-ethyl-8-oxo-spiro[6,7-dihydro-4H-pyrazolo[3,4-c]azepine-5,4′-tetrahydropyran]-3-yl)-2-methyl-propyl] 4-hydroxy-cyclohexanecarboxylate], the IC50 was below 0.1 µM.

In the case of `CCc1ccc(C(=O)OC[C@H](C)Cc2nn(CC)c3c2CC2(CCOCC2)CNC3=O)cc1` [Example 148, [(2R)-3-(1-ethyl-8-oxo-spiro[6,7-dihydro-4H-pyrazolo[3,4-c]azepine-5,4′-tetrahydropyran]-3-yl)-2-methyl-propyl] 4-ethylbenzoate], the IC50 was below 0.1 µM.

Regarding `CCn1nc(C[C@@H](C)COC(=O)c2ccc(OC)cc2)c2c1C(=O)NCC1(CCOCC1)C2` [Example 149, [(2R)-3-(1-ethyl-8-oxo-spiro[6,7-dihydro-4H-pyrazolo[3,4-c]azepine-5,4′-tetrahydropyran]-3-yl)-2-methyl-propyl] 4-methoxybenzoate], the half-maximal inhibitory concentration (IC50) is below 0.1 µM.

Turning to `CCn1nc(C[C@@H](C)COC(=O)c2cccc(OC)c2)c2c1C(=O)NCC1(CCOCC1)C2` [Example 150, [(2R)-3-(1-ethyl-8-oxo-spiro[6,7-dihydro-4H-pyrazolo[3,4-c]azepine-5,4′-tetrahydropyran]-3-yl)-2-methyl-propyl] 3-methoxybenzoate], the concentration for half-maximal inhibition (IC50) is below 0.1 µM.

Take `CCn1nc(C[C@@H](C)COC(=O)c2ccccc2OC)c2c1C(=O)NCC1(CCOCC1)C2` [Example 151, [(2R)-3-(1-ethyl-8-oxo-spiro[6,7-dihydro-4H-pyrazolo[3,4-c]azepine-5,4′-tetrahydropyran]-3-yl)-2-methyl-propyl] 2-methoxybenzoate]: the IC50 is below 0.1 µM.

For `CCn1nc(C[C@@H](C)COC(=O)CCS(C)(=O)=O)c2c1C(=O)NCC1(CCOCC1)C2` [Example 152, [(2R)-3-(1-ethyl-8-oxo-spiro[6,7-dihydro-4H-pyrazolo[3,4-c]azepine-5,4′-tetrahydropyran]-3-yl)-2-methyl-propyl] 3-methylsulfonylpropanoate], the half-maximal inhibitory concentration (IC50) was below 0.1 µM.

Take `CCn1nc(C[C@@H](C)COC(=O)c2ccc(C(C)=O)cc2)c2c1C(=O)NCC1(CCOCC1)C2` [Example 153, [(2R)-3-(1-ethyl-8-oxo-spiro[6,7-dihydro-4H-pyrazolo[3,4-c]azepine-5,4′-tetrahydropyran]-3-yl)-2-methyl-propyl] 4-acetylbenzoate]: the 50% inhibitory concentration (IC50) was below 0.1 µM.

Take `CCn1nc(C[C@@H](C)COC(=O)c2cccc(C(C)=O)c2)c2c1C(=O)NCC1(CCOCC1)C2` [Example 154, [(2R)-3-(1-ethyl-8-oxo-spiro[6,7-dihydro-4H-pyrazolo[3,4-c]azepine-5,4′-tetrahydropyran]-3-yl)-2-methyl-propyl] 3-acetylbenzoate]: the 50% inhibitory concentration (IC50) was below 0.1 µM.

As to `CCn1nc(C[C@@H](C)COC(=O)c2ccc(S(C)(=O)=O)cc2)c2c1C(=O)NCC1(CCOCC1)C2` [Example 155, [(2R)-3-(1-ethyl-8-oxo-spiro[6,7-dihydro-4H-pyrazolo[3,4-c]azepine-5,4′-tetrahydropyran]-3-yl)-2-methyl-propyl] 4-methylsulfonylbenzoate], the IC50 was below 0.1 µM.

As for `CCn1nc(C[C@@H](C)COC(=O)c2cccc(S(=O)(=O)CC)c2)c2c1C(=O)NCC1(CCOCC1)C2` [Example 156, [(2R)-3-(1-ethyl-8-oxo-spiro[6,7-dihydro-4H-pyrazolo[3,4-c]azepine-5,4′-tetrahydropyran]-3-yl)-2-methyl-propyl] 3-ethylsulfonylbenzoate], the IC50 was below 0.1 µM.

Regarding `CCn1nc(C[C@@H](C)COC(=O)c2ccc(S(=O)(=O)CC)cc2)c2c1C(=O)NCC1(CCOCC1)C2` [Example 157, [(2R)-3-(1-ethyl-8-oxo-spiro[6,7-dihydro-4H-pyrazolo[3,4-c]azepine-5,4′-tetrahydropyran]-3-yl)-2-methyl-propyl] 4-ethylsulfonylbenzoate], the concentration for half-maximal inhibition (IC50) is below 0.1 µM.

Take `CCn1nc(C[C@@H](C)COC(=O)c2ccc(S(=O)(=O)NC)cc2)c2c1C(=O)NCC1(CCOCC1)C2` [Example 158, [(2R)-3-(1-ethyl-8-oxo-spiro[6,7-dihydro-4H-pyrazolo[3,4-c]azepine-5,4′-tetrahydropyran]-3-yl)-2-methyl-propyl] 4-(methylsulfamoyl)benzoate]: the half-inhibitory concentration (IC50) is below 0.1 µM.

Take `CCn1nc(C[C@@H](C)COC(=O)c2cccc(S(=O)(=O)C(C)C)c2)c2c1C(=O)NCC1(CCOCC1)C2` [Example 159, [(2R)-3-(1-ethyl-8-oxo-spiro[6,7-dihydro-4H-pyrazolo[3,4-c]azepine-5,4′-tetrahydropyran]-3-yl)-2-methyl-propyl] 3-isopropylsulfonylbenzoate]: the IC50 was below 0.1 µM.

Consider `CCn1nc(C[C@@H](C)COC(=O)c2ccc(S(=O)(=O)C(C)C)cc2)c2c1C(=O)NCC1(CCOCC1)C2` [Example 160, [(2R)-3-(1-ethyl-8-oxo-spiro[6,7-dihydro-4H-pyrazolo[3,4-c]azepine-5,4′-tetrahydropyran]-3-yl)-2-methyl-propyl] 4-isopropylsulfonylbenzoate], for which the half-inhibitory concentration (IC50) is below 0.1 µM.

`CCn1nc(C[C@@H](C)COC(=O)c2ccc(S(=O)(=O)N(C)C)cc2)c2c1C(=O)NCC1(CCOCC1)C2` [Example 161, [(2R)-3-(1-ethyl-8-oxo-spiro[6,7-dihydro-4H-pyrazolo[3,4-c]azepine-5,4′-tetrahydropyran]-3-yl)-2-methyl-propyl] 4-(di-methylsulfamoyl)benzoate]: the concentration for half-maximal inhibition (IC50) was below 0.1 µM.

As for `CCn1nc(C[C@@H](C)COC(=O)c2ccc(S(=O)(=O)C3CCCC3)cc2)c2c1C(=O)NCC1(CCOCC1)C2` [Example 162, [(2R)-3-(1-ethyl-8-oxo-spiro[6,7-dihydro-4H-pyrazolo[3,4-c]azepine-5,4′-tetrahydropyran]-3-yl)-2-methyl-propyl] 4-cyclopentylsulfonylbenzoate], the IC50 was below 0.1 µM.

As to `CCn1nc(C[C@@H](C)COC(=O)c2cccc(S(=O)(=O)N3CCCC3)c2)c2c1C(=O)NCC1(CCOCC1)C2` [Example 163, [(2R)-3-(1-ethyl-8-oxo-spiro[6,7-dihydro-4H-pyrazolo[6,7-c]azepine-5,4′-tetrahydropyran]-3-yl)-2-methyl-propyl] 3-pyrrolidin-1-ylsulfonylbenzoate], the half-inhibitory concentration (IC50) was below 0.1 µM.

For `CCn1nc(C[C@@H](C)COC(=O)c2cccc(S(=O)(=O)N3CCOCC3)c2)c2c1C(=O)NCC1(CCOCC1)C2` [Example 164, [(2R)-3-(1-ethyl-8-oxo-spiro[6,7-dihydro-4H-pyrazolo[3,4-c]azepine-5,4′-tetrahydropyran]-3-yl)-2-methyl-propyl] 3-morpholinosulfonylbenzoate], the half-maximal inhibitory concentration (IC50) is below 0.1 µM.

Take `CCn1nc(C[C@@H](C)COC(=O)c2ccc(S(=O)(=O)N3CCOCC3)cc2)c2c1C(=O)NCC1(CCOCC1)C2` [Example 165, [(2R)-3-(1-ethyl-8-oxo-spiro[6,7-dihydro-4H-pyrazolo[3,4-c]azepine-5,4′-tetrahydropyran]-3-yl)-2-methyl-propyl] 4-morpholinosulfonylbenzoate]: the IC50 was below 0.1 µM.

Take `CCn1nc(C[C@@H](C)COC(=O)c2cccc(S(=O)(=O)N3CCN(C(C)=O)CC3)c2)c2c1C(=O)NCC1(CCOCC1)C2` [Example 166, [(2R)-3-(1-ethyl-8-oxo-spiro[6,7-dihydro-4H-pyrazolo[3,4-c]azepine-5,4′-tetrahydropyran]-3-yl)-2-methyl-propyl] 3-(4-acetylpiperazin-1-yl)sulfonylbenzoate]: the half-maximal inhibitory concentration (IC50) was below 0.1 µM.

On to `CCn1nc(C[C@@H](C)COC(=O)c2ccc(S(=O)(=O)N3CCN(C(C)=O)CC3)cc2)c2c1C(=O)NCC1(CCOCC1)C2` [Example 167, [(2R)-3-(1-ethyl-8-oxo-spiro[6,7-dihydro-4H-pyrazolo[3,4-c]azepine-5,4′-tetrahydropyran]-3-yl)-2-methyl-propyl] 4-(4-acetylpiperazin-1-yl)sulfonylbenzoate], for which the IC50 is below 0.1 µM.

On to `CCn1nc(C[C@@H](C)COC(=O)c2ccc(C(N)=O)cc2)c2c1C(=O)NCC1(CCOCC1)C2` [Example 169, [(2R)-3-(1-ethyl-8-oxo-spiro[6,7-dihydro-4H-pyrazolo[3,4-c]azepine-5,4′-tetrahydropyran]-3-yl)-2-methyl-propyl] 4-carbamoylbenzoate], for which the 50% inhibitory concentration (IC50) was below 0.1 µM.

As for `CCn1nc(C[C@@H](C)COC(=O)c2ccc(C(=O)NC)cc2)c2c1C(=O)NCC1(CCOCC1)C2` [Example 170, [(2R)-3-(1-ethyl-8-oxo-spiro[6,7-dihydro-4H-pyrazolo[3,4-c]azepine-5,4′-tetrahydropyran]-3-yl)-2-methyl-propyl] 4-(methylcarbamoyl)benzoate], the half-inhibitory concentration (IC50) is below 0.1 µM.

Turning to `CCn1nc(C[C@@H](C)COC(=O)c2ccc(C(=O)N(C)C)cc2)c2c1C(=O)NCC1(CCOCC1)C2` [Example 171, [(2R)-3-(1-ethyl-8-oxo-spiro[6,7-dihydro-4H-pyrazolo[3,4-c]azepine-5,4′-tetrahydropyran]-3-yl)-2-methyl-propyl] 4-(di-methylcarbamoyl)benzoate], the 50% inhibitory concentration (IC50) is below 0.1 µM.

With `CCn1nc(C[C@@H](C)COC(=O)c2ccc(C(=O)N3CCCC3)cc2)c2c1C(=O)NCC1(CCOCC1)C2` [Example 172, [(2R)-3-(1-ethyl-8-oxo-spiro[6,7-dihydro-4H-pyrazolo[3,4-c]azepine-5,4′-tetrahydropyran]-3-yl)-2-methyl-propyl] 4-(pyrrolidine-1-carbonyl)benzoate], the concentration for half-maximal inhibition (IC50) is below 0.1 µM.
